Measurements reported in US8940310B2, “Methods of treatment using TLR7 and/or TLR9 inhibitors” (Dynavax Technologies Corporation, priority 2010, dated 2015).
[I] = hypoxanthine (inosine); d = 2'-deoxy (DNA); m = 2'-O-methyl

System: human B-cells
Assay: Human B-cells cultured in the presence of IRPs, IL-6
[1] = Experiment # 4, Max Conc 4.0 uM
[2] = Experiment # 5, Max Conc 4.0 uM
[3] = Experiment # 6, Max Conc 4.0 uM
[4] = Experiment # 7, Max Conc 4.0 uM

5′-UGC TGC TCC TTG AGI GGT TGT (DNA UGCTGCTCCTTGAGNGGTTGT; sugars from the 5' end m3 d18, [I] at 15, backbone not given here) [SEQ ID NO:114]
Normalized IL-6 Response (Percentage of Positive Control) [1]: 40%
Normalized IL-6 Response (Percentage of Positive Control) [2]: 39%
Normalized IL-6 Response (Percentage of Positive Control) [3]: 39%
Normalized IL-6 Response (Percentage of Positive Control) [4]: 40%

5′-UGC TTG TCC TGG AGI GGT GTT GT (DNA UGCTTGTCCTGGAGNGGTGTTGT; sugars from the 5' end m3 d20, [I] at 15, backbone not given here) [SEQ ID NO:124]
Normalized IL-6 Response (Percentage of Positive Control) (Experiment # 8, Max Conc 2.0 uM): 33%

5′-UGC TGC TCC TTG AGI GG (DNA UGCTGCTCCTTGAGNGG; sugars from the 5' end m3 d14, [I] at 15, backbone not given here) [SEQ ID NO:117]
Normalized IL-6 Response (Percentage of Positive Control) [2]: 17%
Normalized IL-6 Response (Percentage of Positive Control) [3]: 13%

5′-UGC TGC TCC TTG AGI GGT GTT GT (DNA UGCTGCTCCTTGAGNGGTGTTGT; sugars from the 5' end m3 d20, [I] at 15, backbone not given here) [SEQ ID NO:180]
Normalized IL-6 Response (Percentage of Positive Control) (Experiment # 10, Max Conc 2.0 uM): 46%

5′-UGC TCC TGG AGG GGU UGU (DNA UGCTCCTGGAGGGGUUGU; sugars from the 5' end m3 d11 m4, backbone not given here) [SEQ ID NO:85]
Normalized IL-6 Response (Percentage of Positive Control) [1]: 18%
Normalized IL-6 Response (Percentage of Positive Control) [4]: 18%

5′-UGC TTG TCC TGG AGI GGT TGT (DNA UGCTTGTCCTGGAGNGGTTGT; sugars from the 5' end m3 d18, [I] at 15, backbone not given here) [SEQ ID NO:123]
Normalized IL-6 Response (Percentage of Positive Control) (Experiment # 2, Max Conc 4.0 uM): 35%
Normalized IL-6 Response (Percentage of Positive Control) (Experiment # 9, Max Conc 2.0 uM): 35%

5′-TGC TCC TTG AGG GGT TGT-3′ (DNA TGCTCCTTGAGGGGTTGT; DNA, backbone not given here; further chemistry not fully specified) [SEQ ID NO:69]
Normalized IL-6 Response (Percentage of Positive Control) [1]: 11%
Normalized IL-6 Response (Percentage of Positive Control) [4]: 11%
